Data as given in PubChem BioAssay (NCI).
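Interpolation was linear, between the two tested concentrations surrounding the appropriate level; five concentrations were tested over 48 hours in 96-well plates. At the GI50, growth is halved. At the TGI there is no net growth.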

Legend:
Test in all cases: NCI tumour cell line growth inhibition, 48 h
NCI-H460 lung = tested on: NCI-H460 lung
HCC-2998 colon = tested on: HCC-2998 colon
IGROV1 ovarian = tested on: IGROV1 ovarian
CCRF-CEM leukemia = tested on: CCRF-CEM leukemia
HOP-62 NSCLC = tested on: HOP-62 NSCLC
OVCAR-3 ovarian = tested on: OVCAR-3 ovarian
HCT-116 colon = tested on: HCT-116 colon
786-0 renal = tested on: 786-0 renal
MCF7 breast = tested on: MCF7 breast
DU-145 prostate = tested on: DU-145 prostate

## CCc1nc(N)nc(N)c1-c1ccc(N(C)Cc2ccccc2)c([N+](=O)[O-])c1
NCI-H460 lung
  TGI: 8.72 µM
HCC-2998 colon
  TGI: 8.73 µM
IGROV1 ovarian
  TGI: 25.8 µM
CCRF-CEM leukemia
  TGI: 12.7 µM
HOP-62 NSCLC
  TGI: 14.3 µM
OVCAR-3 ovarian
  TGI: 22.6 µM
HCT-116 colon
  TGI: 10 µM
786-0 renal
  TGI: 30.3 µM
MCF7 breast
  TGI: 15.9 µM
DU-145 prostate
  TGI: 31.7 µM

## C#Cc1cccc(Nc2ncnc3ccc(-c4cnc(N)nc4)cc23)c1
NCI-H460 lung
  GI50: 2.95 µM
  TGI: 14 µM
HCC-2998 colon
  GI50: 5.14 µM
  TGI: 23.4 µM
IGROV1 ovarian
  GI50: 0.183 µM
  TGI: 2.26 µM
CCRF-CEM leukemia
  GI50: 2.6 µM
  TGI: > 100 µM
HOP-62 NSCLC
  GI50: 1.98 µM
  TGI: 12.4 µM
OVCAR-3 ovarian
  GI50: 1.93 µM
  TGI: 10.5 µM
HCT-116 colon
  GI50: 4.75 µM
  TGI: 17.3 µM
786-0 renal
  GI50: 2.67 µM
  TGI: 14.8 µM
MCF7 breast
  GI50: 1.8 µM
  TGI: 12.2 µM
DU-145 prostate
  GI50: 0.744 µM
  TGI: 14.6 µM

## CSc1nc(SC)c2c(C)c(Br)[nH]c2n1
NCI-H460 lung
  TGI: > 100 µM
HCC-2998 colon
  TGI: > 100 µM
IGROV1 ovarian
  TGI: > 100 µM
CCRF-CEM leukemia
  TGI: > 100 µM
HOP-62 NSCLC
  TGI: > 100 µM
OVCAR-3 ovarian
  TGI: > 100 µM
HCT-116 colon
  TGI: > 100 µM
786-0 renal
  TGI: > 100 µM
MCF7 breast
  TGI: > 100 µM
DU-145 prostate
  TGI: > 100 µM

## CCCCCCCCCCCCSC1=CC(=O)C=CC1=O
NCI-H460 lung
  GI50: 13.9 µM
  TGI: > 50 µM
HCC-2998 colon
  GI50: 15.2 µM
  TGI: > 50 µM
IGROV1 ovarian
  GI50: 1.06 µM
  TGI: 3.22 µM
CCRF-CEM leukemia
  GI50: 0.143 µM
  TGI: 4.17 µM
HOP-62 NSCLC
  GI50: 9.23 µM
  TGI: > 35 µM
OVCAR-3 ovarian
  GI50: 1.98 µM
  TGI: 7.91 µM
HCT-116 colon
  GI50: 6.31 µM
  TGI: > 43.3 µM
786-0 renal
  GI50: 9.94 µM
  TGI: > 33.5 µM
MCF7 breast
  GI50: 2.22 µM
  TGI: > 50 µM
DU-145 prostate
  GI50: 15.1 µM
  TGI: > 50 µM

## CCN(CC)CCNc1ccc(N=Nc2cnc3ccccc3c2)c2ccccc12
NCI-H460 lung
  GI50: 1.72 µM
  TGI: 3.18 µM
HCC-2998 colon
  GI50: 1.75 µM
  TGI: 3.16 µM
IGROV1 ovarian
  GI50: 1.67 µM
  TGI: 3.77 µM
CCRF-CEM leukemia
  GI50: 0.223 µM
  TGI: 1.09 µM
HOP-62 NSCLC
  GI50: 1.66 µM
  TGI: 3.02 µM
OVCAR-3 ovarian
  GI50: 1.78 µM
  TGI: 3.43 µM
HCT-116 colon
  GI50: 1.51 µM
  TGI: 2.84 µM
786-0 renal
  GI50: 1.93 µM
  TGI: 3.35 µM
MCF7 breast
  GI50: 1.37 µM
  TGI: 2.7 µM
DU-145 prostate
  GI50: 1.83 µM
  TGI: 3.22 µM

## CCc1c2c(nc3ccc(OC(=O)OCc4ccc(B5OC(C)(C)C(C)(C)O5)cc4)cc13)-c1cc3c(c(=O)n1C2)COC(=O)[C@]3(O)CC
NCI-H460 lung
  GI50: < 0.01 µM
  TGI: 0.182 µM
HCC-2998 colon
  GI50: 0.0661 µM
  TGI: 3.86 µM
IGROV1 ovarian
  GI50: 0.1 µM
  TGI: 3.48 µM
CCRF-CEM leukemia
  GI50: < 0.01 µM
  TGI: > 100 µM
HOP-62 NSCLC
  GI50: < 0.01 µM
  TGI: 3.27 µM
OVCAR-3 ovarian
  GI50: 0.0716 µM
  TGI: 1.46 µM
HCT-116 colon
  GI50: < 0.0111 µM
  TGI: > 100 µM
786-0 renal
  GI50: < 0.01 µM
  TGI: 0.289 µM
MCF7 breast
  GI50: < 0.01 µM
  TGI: > 100 µM
DU-145 prostate
  GI50: < 0.01 µM
  TGI: > 53.3 µM

## CC(C)c1ccc(C(c2c(O)c3ccccc3oc2=O)c2c(O)c3ccccc3oc2=O)cc1
NCI-H460 lung
  TGI: 37.6 µM
HCC-2998 colon
  TGI: 35.2 µM
IGROV1 ovarian
  TGI: > 62.6 µM
CCRF-CEM leukemia
  TGI: 36.2 µM
HOP-62 NSCLC
  TGI: 50.5 µM
OVCAR-3 ovarian
  TGI: 37.9 µM
HCT-116 colon
  TGI: 33.2 µM
786-0 renal
  TGI: 40.9 µM
MCF7 breast
  TGI: 86 µM
DU-145 prostate
  TGI: > 81.8 µM

## Cc1nccc2c3ccc(OCc4cn(-c5ccc(Br)cc5)nn4)cc3n(CCCc3ccccc3)c12
NCI-H460 lung
  GI50: 3.03 µM
  TGI: > 100 µM
HCC-2998 colon
  GI50: > 100 µM
  TGI: > 100 µM
IGROV1 ovarian
  GI50: 6.44 µM
  TGI: > 100 µM
CCRF-CEM leukemia
  GI50: 2.97 µM
  TGI: > 100 µM
HOP-62 NSCLC
  GI50: 3.16 µM
  TGI: 29.6 µM
OVCAR-3 ovarian
  GI50: > 100 µM
  TGI: > 100 µM
HCT-116 colon
  GI50: 7.2 µM
  TGI: > 100 µM
786-0 renal
  GI50: 1.49 µM
  TGI: 3.13 µM
MCF7 breast
  GI50: 3.09 µM
  TGI: > 100 µM
DU-145 prostate
  GI50: 5.2 µM
  TGI: > 100 µM

## O=C1c2c(c3c4ccccc4n(CCCCCCN4CCOCC4)c3c3[nH]c4ccccc4c23)C(=O)N1O
NCI-H460 lung
  GI50: 1.81 µM
  TGI: 3.66 µM
HCC-2998 colon
  GI50: 9.6 µM
  TGI: 32.1 µM
IGROV1 ovarian
  GI50: 3.76 µM
  TGI: 49.3 µM
CCRF-CEM leukemia
  GI50: 2.25 µM
  TGI: 8.35 µM
HOP-62 NSCLC
  GI50: 18.2 µM
  TGI: 55.2 µM
OVCAR-3 ovarian
  GI50: 16.3 µM
  TGI: 33.8 µM
HCT-116 colon
  GI50: 1.85 µM
  TGI: 3.86 µM
786-0 renal
  GI50: 1.96 µM
  TGI: 5.43 µM
MCF7 breast
  GI50: 2.07 µM
  TGI: 7.73 µM
DU-145 prostate
  GI50: 11.5 µM
  TGI: > 100 µM
